Patent publication US20250332173A1, “COMPOUNDS AND METHODS FOR MODULATING NUCLEIC ACID SPLICING” (REMIX THERAPEUTICS INC., priority 2021, published 2025)
Like-named read-outs stand apart in the source and are kept apart here.

Key:
Assay type in all cases: cell-based, human
[1] = system: MYB mRNA; assay: RT-qPCR splicing assay, MYB canonical junction (CJ) and alternative junction (AJ) mRNA; settings: Homo sapiens; for AC50: increase in MYB alternative junction (AJ) mRNA, read-out: MYB AJ AC50
Method in brief: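 24 h treatment, 37 °C/5% CO2; A673 or K562; 11-pt 3-fold series, top 10 uM final; DMSO ≤0.25%. Cell lysis with DNase I, then 1-step RT-qPCR. Housekeeping normalization: PPIA (A673), GAPDH or GUSB (K562).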

[2] = system: HTT; assay: HiBiT protein abundance assay, HTT HiBiT K562 cell line; settings: HiBiT K562 cell line, 24 hours, top dose 10 μM; read-out: Effect on protein abundance, HTT (IC50 category)
Method in brief: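 K562 knock-in lines with endogenous HiBiT-tagged target, 10,000 cells/well in IMDM + FBS, treated 24 h at 37° C with 10-point 3-fold dilutions (top 10 μM final; DMSO ≤0.25%). Lytic Nano-Glo HiBiT luminescence normalized to untagged K562 baseline and DMSO controls; IC50 = concentration giving 50% abundance via four-parameter fit.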

[3] = system: Target C; assay: HiBiT protein abundance assay, Target C (Promega Nano-Glo HiBiT Lytic Detection System, knock-in K562 cell line); settings: Homo sapiens, K562, 24 h, HiBiT K562 cell line, 24 hours, top dose 10 μM; read-out: Effect on protein abundance, Target C (IC50 category)
Method in brief: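 Knock-in K562 cells carrying HiBiT-tagged Target C, 10,000 per well, treated 24 h at 37 °C with 10-point threefold dilutions (top 10 μM final, ≤0.25% DMSO). Lytic HiBiT luminescence read; response normalised to unmodified K562 and DMSO controls, four-parameter fit interpolated at 50% for IC50.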

[4] = Table 5 panel, canonical junction qPCR, compound concentration having 50% response in CJ decrease, read-out: MYB IC50 (decrease in CJ mRNA levels)
[5] = decrease in MYB canonical junction (CJ) mRNA, RT-qPCR, read-out: MYB CJ IC50

IC50 [1, 4] [nM] | IC50 [1, 5] [nM] | IC50 [2] [nM] | IC50 [3] [nM] | Compound | AC50 ([1]; RT-qPCR) [nM]
< 100 | 100 to 1000 | 100 to 1000 | 100 to 1000 | Cc1cn2nc(-c3cc4ccn([C@H]5CCNC5)c(=O)c4cc3O)cc(C)c2n1 [Compound 641, 6-(2,8-dimethylimidazo[1,2-b]pyridazin-6-yl)-7-hydroxy-2-[(3S)-pyrrolidin-3-yl]isoquinolin-1-one] | < 100
100 to 1000 | 100 to 1000 | 100 to 1000 | 1000 to 10000 | Cc1cn2cc(-c3cc(F)c4c(=O)n([C@@H]5C[C@@H](C)N[C@@H](C)C5)ccc4c3)cc(F)c2n1 [Compound 642, 2-[(2S,6R)-2,6-dimethyl-4-piperidyl]-8-fluoro-6-(8-fluoro-2-methyl-imidazo[1,2-a]pyridin-6-yl)isoquinolin-1-one] | 100 to 1000
100 to 1000 | 1000 to 10000 | > 10000 | > 10000 | Cc1cn2cc(-c3cc(F)c4c(=O)n([C@H]5CNC[C@@H]5F)ccc4c3)cc(F)c2n1 [Compound 644] | 100 to 1000
1000 to 10000 | 1000 to 10000 | 1000 to 10000 | > 10000 | Cc1cn2nc(-c3cc(N)c4c(=O)n([C@H]5CCNC5)ccc4c3)cc(C)c2n1 [Compound 645, 8-amino-6-(2,8-dimethylimidazo[1,2-b]pyridazin-6-yl)-2-[(3S)-pyrrolidin-3-yl]isoquinolin-1-one] | 1000 to 10000
> 10000 | 1000 to 10000 | > 10000 | > 10000 | Cc1cn2nc(-c3cc(N)c4c(=O)n([C@@H]5CCNC5)ccc4c3)cc(C)c2n1 [Compound 646, 8-amino-6-(2,8-dimethylimidazo[1,2-b]pyridazin-6-yl)-2-[(3R)-pyrrolidin-3-yl]isoquinolin-1-one] | > 10000
1000 to 10000 | 1000 to 10000 | 1000 to 10000 | > 10000 | CNc1cc(-c2cc(C)c3nc(C)cn3n2)cc2ccn([C@H]3CCNC3)c(=O)c12 [Compound 647, 6-(2,8-dimethylimidazo[1,2-b]pyridazin-6-yl)-8-(methylamino)-2-[(3S)-pyrrolidin-3-yl]isoquinolin-1-one] | 1000 to 10000
> 10000 | > 10000 | > 10000 | > 10000 | CNc1cc(-c2cc(C)c3nc(C)cn3n2)cc2ccn([C@@H]3CCNC3)c(=O)c12 [Compound 648, 6-(2,8-dimethylimidazo[1,2-b]pyridazin-6-yl)-8-(methylamino)-2-[(3R)-pyrrolidin-3-yl]isoquinolin-1-one] | > 10000
1000 to 10000 | 1000 to 10000 | 1000 to 10000 | 1000 to 10000 | CC(=O)Nc1cc(-c2cc(C)c3nc(C)cn3n2)cc2ccn([C@H]3CCNC3)c(=O)c12 [Compound 649, N-[6-(2,8-dimethylimidazo[1,2-b]pyridazin-6-yl)-1-oxo-2-[(3S)-pyrrolidin-3-yl]-8-isoquinolyl]acetamide] | 1000 to 10000
> 10000 | > 10000 | > 10000 | > 10000 | CC(=O)Nc1cc(-c2cc(C)c3nc(C)cn3n2)cc2ccn([C@@H]3CCNC3)c(=O)c12 [Compound 650, N-[6-(2,8-dimethylimidazo[1,2-b]pyridazin-6-yl)-1-oxo-2-[(3R)-pyrrolidin-3-yl]-8-isoquinolyl]acetamide] | > 10000
< 100 | < 100 | < 100 | 100 to 1000 | Cc1cn2cc(-c3cc(F)c4c(=O)n(C5CC(C)NC(C)C5)ccc4c3)cc(F)c2n1 (centres unmarked) [Compound 651] | < 100
1000 to 10000 | 1000 to 10000 | > 10000 | > 10000 | Cc1cn2cc(-c3cc(F)c4c(=O)n([C@H]5CNC[C@H]5C)ccc4c3)cc(F)c2n1 [Compound 652, 8-fluoro-6-(8-fluoro-2-methyl-imidazo[1,2-a]pyridin-6-yl)-2-[(3R,4R)-4-methylpyrrolidin-3-yl]isoquinolin-1-one] | 1000 to 10000
1000 to 10000 | 1000 to 10000 | > 10000 | > 10000 | Cc1cn2cc(-c3cc(F)c4c(=O)n([C@@H]5CNC[C@@H]5C)ccc4c3)cc(F)c2n1 [Compound 653, 8-fluoro-6-(8-fluoro-2-methyl-imidazo[1,2-a]pyridin-6-yl)-2-[(3S,4S)-4-methylpyrrolidin-3-yl]isoquinolin-1-one] | 1000 to 10000
< 100 | < 100 | < 100 | < 100 | Cn1cc2cc(-c3ncc4c(=O)n(C5CCNCC5)ccc4n3)c(O)c(F)c2n1 [Compound 1123] | < 100
